Test system: Amaranthus retoflexus (AMARE)
Experiment: Herbicidal glasshouse test, pre-emergence, AMARE
Format: in vivo
Conditions: applied at 1000 g/h, evaluated after 13 days
Method in brief: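 Amaranthus retoflexus seeds were sown in pots of standard soil and kept one day in a glasshouse at 24/16° C. (day/night), 14 hours light and 65% humidity. They were then sprayed pre-emergence with the active ingredient in acetone/water (50:50) containing 0.5% Tween 20. Plants grew under the same conditions, watered twice daily, and percentage damage was scored after 13 days.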

SMILES	PRE Application AMARE, percentage damage (five point scale)
Cn1ncnc1NC(=O)c1cn(C)c(=O)n(-c2ccccc2)c1=O [Compound 2.003]	2 (2=20-39%)
CCn1nnnc1NC(=O)c1cn(C)c(=O)n(-c2cccc(F)c2)c1=O [Compound 4.003]	5 (5=80-100%)
CCCCn1c(=O)c(C(=O)Nc2nnnn2C)cn(C)c1=O [Compound 4.004]	5 (5=80-100%)
CCCn1nnnc1NC(=O)c1cn(C)c(=O)n(-c2cccc(F)c2)c1=O [Compound 4.005]	4 (4=60-79%)
Cn1ncnc1NC(=O)c1nn(C)c(=O)n(-c2ccccc2)c1=O [Compound 5.001]	5 (5=80-100%)

Test system: Alopecurus myosuroides (ALOMY)
Experiment: Herbicidal glasshouse test, pre-emergence, ALOMY
Format: in vivo
Conditions: applied at 1000 g/h, evaluated after 13 days

SMILES	PRE Application ALOMY, percentage damage (five point scale)
Cn1ncnc1NC(=O)c1cn(C)c(=O)n(-c2ccccc2)c1=O [Compound 2.003]	1 (1=0-19%)
CCn1nnnc1NC(=O)c1cn(C)c(=O)n(-c2cccc(F)c2)c1=O [Compound 4.003]	2 (2=20-39%)
CCCCn1c(=O)c(C(=O)Nc2nnnn2C)cn(C)c1=O [Compound 4.004]	1 (1=0-19%)
CCCn1nnnc1NC(=O)c1cn(C)c(=O)n(-c2cccc(F)c2)c1=O [Compound 4.005]	1 (1=0-19%)
Cn1ncnc1NC(=O)c1nn(C)c(=O)n(-c2ccccc2)c1=O [Compound 5.001]	1 (1=0-19%)

Test system: Ipomoea hederacea (IPOHE)
Experiment: Herbicidal glasshouse test, post-emergence, IPOHE
Format: in vivo
Conditions: applied at 1000 g/h, evaluated after 13 days

SMILES	POST Application IPOHE, percentage damage (five point scale)
Cn1ncnc1NC(=O)c1cn(C)c(=O)n(-c2ccccc2)c1=O [Compound 2.003]	2 (2=20-39%)
CCn1nnnc1NC(=O)c1cn(C)c(=O)n(-c2cccc(F)c2)c1=O [Compound 4.003]	2 (2=20-39%)
CCCCn1c(=O)c(C(=O)Nc2nnnn2C)cn(C)c1=O [Compound 4.004]	4 (4=60-79%)
CCCn1nnnc1NC(=O)c1cn(C)c(=O)n(-c2cccc(F)c2)c1=O [Compound 4.005]	5 (5=80-100%)
Cn1ncnc1NC(=O)c1nn(C)c(=O)n(-c2ccccc2)c1=O [Compound 5.001]	5 (5=80-100%)

Test system: Solanum nigrum (SOLNI)
Experiment: Herbicidal glasshouse test, pre-emergence, SOLNI
Format: in vivo
Conditions: applied at 1000 g/h, evaluated after 13 days
Method in brief: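 Seeds of Solanum nigrum were sown in pots of standard soil and kept one day in a glasshouse at 24/16° C. day/night, 14 hours light and 65% humidity. For the pre-emergence treatment they were then sprayed with an aqueous solution of the active ingredient formulated in acetone/water (50:50) containing 0.5% Tween 20. Plant damage was rated after 13 days.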

SMILES	PRE Application SOLNI, percentage damage (five point scale)
Cn1ncnc1NC(=O)c1cn(C)c(=O)n(-c2ccccc2)c1=O [Compound 2.003]	4 (4=60-79%)
CCn1nnnc1NC(=O)c1cn(C)c(=O)n(-c2cccc(F)c2)c1=O [Compound 4.003]	4 (4=60-79%)
CCCCn1c(=O)c(C(=O)Nc2nnnn2C)cn(C)c1=O [Compound 4.004]	2 (2=20-39%)
CCCn1nnnc1NC(=O)c1cn(C)c(=O)n(-c2cccc(F)c2)c1=O [Compound 4.005]	5 (5=80-100%)
Cn1ncnc1NC(=O)c1nn(C)c(=O)n(-c2ccccc2)c1=O [Compound 5.001]	5 (5=80-100%)

Test system: Amaranthus retoflexus (AMARE)
Experiment: Herbicidal glasshouse test, post-emergence, AMARE
Format: in vivo
Conditions: applied at 1000 g/h, evaluated after 13 days
Method in brief: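 Amaranthus retoflexus (AMARE) seeds were sown in pots of standard soil and grown in a glasshouse at 24/16° C. day/night, 14 hours light and 65% humidity for 8 days. The plants were then sprayed post-emergence with an aqueous solution of the active ingredient in acetone/water (50:50) with 0.5% Tween 20. Damage was scored after 13 days.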

SMILES	POST Application AMARE, percentage damage (five point scale)
Cn1ncnc1NC(=O)c1cn(C)c(=O)n(-c2ccccc2)c1=O [Compound 2.003]	1 (1=0-19%)
CCn1nnnc1NC(=O)c1cn(C)c(=O)n(-c2cccc(F)c2)c1=O [Compound 4.003]	5 (5=80-100%)
CCCCn1c(=O)c(C(=O)Nc2nnnn2C)cn(C)c1=O [Compound 4.004]	5 (5=80-100%)
CCCn1nnnc1NC(=O)c1cn(C)c(=O)n(-c2cccc(F)c2)c1=O [Compound 4.005]	5 (5=80-100%)
Cn1ncnc1NC(=O)c1nn(C)c(=O)n(-c2ccccc2)c1=O [Compound 5.001]	5 (5=80-100%)

Test system: Echinochloa crus-galli (ECHCG)
Experiment: Herbicidal glasshouse test, pre-emergence, ECHCG
Format: in vivo
Conditions: applied at 1000 g/h, evaluated after 13 days
Method in brief: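 Echinochloa crus-galli seeds were sown in standard soil in pots and grown for one day in a glasshouse at 24/16° C. day/night, 14 hours light and 65% humidity. Pre-emergence spraying used an aqueous solution of the active ingredient in acetone/water (50:50) with 0.5% Tween 20. Damage was scored after 13 days on a five point scale.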

SMILES	PRE Application ECHCG, percentage damage (five point scale)
Cn1ncnc1NC(=O)c1cn(C)c(=O)n(-c2ccccc2)c1=O [Compound 2.003]	1 (1=0-19%)
CCn1nnnc1NC(=O)c1cn(C)c(=O)n(-c2cccc(F)c2)c1=O [Compound 4.003]	1 (1=0-19%)
CCCCn1c(=O)c(C(=O)Nc2nnnn2C)cn(C)c1=O [Compound 4.004]	1 (1=0-19%)
CCCn1nnnc1NC(=O)c1cn(C)c(=O)n(-c2cccc(F)c2)c1=O [Compound 4.005]	2 (2=20-39%)
Cn1ncnc1NC(=O)c1nn(C)c(=O)n(-c2ccccc2)c1=O [Compound 5.001]	1 (1=0-19%)

Test system: Echinochloa crus-galli (ECHCG)
Experiment: Herbicidal glasshouse test, post-emergence, ECHCG
Format: in vivo
Conditions: applied at 1000 g/h, evaluated after 13 days
Method in brief: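 Echinochloa crus-galli (ECHCG) seeds were sown in standard soil in pots and grown for 8 days in a glasshouse at 24/16° C. day/night, 14 hours light and 65% humidity. The young plants were then sprayed post-emergence with the active ingredient in acetone / water (50:50) containing 0.5% Tween 20. Damage was scored after 13 days.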

SMILES	POST Application ECHCG, percentage damage (five point scale)
Cn1ncnc1NC(=O)c1cn(C)c(=O)n(-c2ccccc2)c1=O [Compound 2.003]	1 (1=0-19%)
CCn1nnnc1NC(=O)c1cn(C)c(=O)n(-c2cccc(F)c2)c1=O [Compound 4.003]	1 (1=0-19%)
CCCCn1c(=O)c(C(=O)Nc2nnnn2C)cn(C)c1=O [Compound 4.004]	1 (1=0-19%)
CCCn1nnnc1NC(=O)c1cn(C)c(=O)n(-c2cccc(F)c2)c1=O [Compound 4.005]	2 (2=20-39%)
Cn1ncnc1NC(=O)c1nn(C)c(=O)n(-c2ccccc2)c1=O [Compound 5.001]	5 (5=80-100%)

Test system: Setaria faberi (SETFA)
Experiment: Herbicidal glasshouse test, pre-emergence, SETFA
Format: in vivo
Conditions: applied at 1000 g/h, evaluated after 13 days

SMILES	PRE Application SETFA, percentage damage (five point scale)
Cn1ncnc1NC(=O)c1cn(C)c(=O)n(-c2ccccc2)c1=O [Compound 2.003]	3 (3=40-59%)
CCn1nnnc1NC(=O)c1cn(C)c(=O)n(-c2cccc(F)c2)c1=O [Compound 4.003]	1 (1=0-19%)
CCCCn1c(=O)c(C(=O)Nc2nnnn2C)cn(C)c1=O [Compound 4.004]	1 (1=0-19%)
CCCn1nnnc1NC(=O)c1cn(C)c(=O)n(-c2cccc(F)c2)c1=O [Compound 4.005]	1 (1=0-19%)
Cn1ncnc1NC(=O)c1nn(C)c(=O)n(-c2ccccc2)c1=O [Compound 5.001]	1 (1=0-19%)

Test system: Ipomoea hederacea (IPOHE)
Experiment: Herbicidal glasshouse test, pre-emergence, IPOHE
Format: in vivo
Conditions: applied at 1000 g/h, evaluated after 13 days

SMILES	PRE Application IPOHE, percentage damage (five point scale)
Cn1ncnc1NC(=O)c1cn(C)c(=O)n(-c2ccccc2)c1=O [Compound 2.003]	5 (5=80-100%)
CCn1nnnc1NC(=O)c1cn(C)c(=O)n(-c2cccc(F)c2)c1=O [Compound 4.003]	3 (3=40-59%)
CCCCn1c(=O)c(C(=O)Nc2nnnn2C)cn(C)c1=O [Compound 4.004]	2 (2=20-39%)
CCCn1nnnc1NC(=O)c1cn(C)c(=O)n(-c2cccc(F)c2)c1=O [Compound 4.005]	4 (4=60-79%)
Cn1ncnc1NC(=O)c1nn(C)c(=O)n(-c2ccccc2)c1=O [Compound 5.001]	4 (4=60-79%)

Test system: Setaria faberi (SETFA)
Experiment: Herbicidal glasshouse test, post-emergence, SETFA
Format: in vivo
Conditions: applied at 1000 g/h, evaluated after 13 days
Method in brief: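 Setaria faberi seeds were sown in standard soil in pots and grown for 8 days in a glasshouse at 24/16° C. day/night, 14 hours light and 65% humidity. The seedlings were then sprayed post-emergence with the active ingredient in acetone/water (50:50) containing 0.5% Tween 20. Afterwards they were kept under the same conditions, watered twice daily, and scored for percentage damage on a five point scale.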

SMILES	POST Application SETFA, percentage damage (five point scale)
Cn1ncnc1NC(=O)c1cn(C)c(=O)n(-c2ccccc2)c1=O [Compound 2.003]	1 (1=0-19%)
CCn1nnnc1NC(=O)c1cn(C)c(=O)n(-c2cccc(F)c2)c1=O [Compound 4.003]	1 (1=0-19%)
CCCCn1c(=O)c(C(=O)Nc2nnnn2C)cn(C)c1=O [Compound 4.004]	1 (1=0-19%)
CCCn1nnnc1NC(=O)c1cn(C)c(=O)n(-c2cccc(F)c2)c1=O [Compound 4.005]	1 (1=0-19%)
Cn1ncnc1NC(=O)c1nn(C)c(=O)n(-c2ccccc2)c1=O [Compound 5.001]	5 (5=80-100%)

Test system: Solanum nigrum (SOLNI)
Experiment: Herbicidal glasshouse test, post-emergence, SOLNI
Format: in vivo
Conditions: applied at 1000 g/h, evaluated after 13 days

SMILES	POST Application SOLNI, percentage damage (five point scale)
Cn1ncnc1NC(=O)c1cn(C)c(=O)n(-c2ccccc2)c1=O [Compound 2.003]	2 (2=20-39%)
CCn1nnnc1NC(=O)c1cn(C)c(=O)n(-c2cccc(F)c2)c1=O [Compound 4.003]	5 (5=80-100%)
CCCCn1c(=O)c(C(=O)Nc2nnnn2C)cn(C)c1=O [Compound 4.004]	5 (5=80-100%)
CCCn1nnnc1NC(=O)c1cn(C)c(=O)n(-c2cccc(F)c2)c1=O [Compound 4.005]	5 (5=80-100%)
Cn1ncnc1NC(=O)c1nn(C)c(=O)n(-c2ccccc2)c1=O [Compound 5.001]	5 (5=80-100%)

Test system: Alopecurus myosuroides (ALOMY)
Experiment: Herbicidal glasshouse test, post-emergence, ALOMY
Format: in vivo
Conditions: applied at 1000 g/h, evaluated after 13 days

SMILES	POST Application ALOMY, percentage damage (five point scale)
Cn1ncnc1NC(=O)c1cn(C)c(=O)n(-c2ccccc2)c1=O [Compound 2.003]	1 (1=0-19%)
CCn1nnnc1NC(=O)c1cn(C)c(=O)n(-c2cccc(F)c2)c1=O [Compound 4.003]	2 (2=20-39%)
CCCCn1c(=O)c(C(=O)Nc2nnnn2C)cn(C)c1=O [Compound 4.004]	1 (1=0-19%)
CCCn1nnnc1NC(=O)c1cn(C)c(=O)n(-c2cccc(F)c2)c1=O [Compound 4.005]	3 (3=40-59%)
Cn1ncnc1NC(=O)c1nn(C)c(=O)n(-c2ccccc2)c1=O [Compound 5.001]	5 (5=80-100%)
